Data taken from PMC8002823, “Synthesis and Structure–Activity Relationships of Aristoyagonine Derivatives as Brd4 Bromodomain Inhibitors with X-ray Co-Crystal Research” (Molecules, 2021).

Key:
c-MYC = assay: Western blot of c-MYC level in NALM6 cells; assay type: cell-based; conditions: 18 h treatment
Experimental: For immunoblotting, cells were washed in PBS, lysed in 1× sample buffer (50 mmol/L Tris-HCl (pH 6.8), 10% glycerol, 2% SDS, and 3% β-mercaptoethanol), and boiled for 10 min. Lysates were subjected to SDS-PAGE followed by blotting with the indicated antibodies and detection by western blotting substrate ECL reagent (Thermo Fisher Scientific, Waltham, MA, USA). Images were produced using a SensiQ-2000 (Lugen Sci Co., Seoul, KOREA). The following antibodies were obtained from Cell Signaling Technology (Danvers, MA, USA): c-Myc (catalog no. 5605). Tubulin antibody (catalog no. T6199) was purchased from Sigma-Aldrich. HRP-conjugated anti-mouse (catalog no. NCI1430KR), and HRP-conjugated anti-rabbit (catalog no. NCI1460KR) antibodies were obtained from Thermo Scientific.

Ty82 cells = assay: Cell cytotoxic assay in Ty82 cells; assay type: cell-based; conditions: Homo sapiens; for CC50: Ty82 cell cytotoxic activity, 72 h; for IC50: TY82, cell cytotoxic activity (Table 4 head prints IC50)
Experimental: (§1) For the viability experiments, Ty82 cells were seeded in 96-well plates at 30% confluency and exposed to chemicals the next day. After 72 h, WST-1 reagent was added, and absorbance at 450 nm was measured by using a Spectramax spectrophotometer (Molecular Devices, San Jose, CA, USA) in accordance with the manufacturer’s instructions. The CC50 values were calculated by using GraphPad Prism version 5 for Windows. The curves were fitted using a nonlinear regression model with a log (inhibitor) versus response formula.

Brd4 bromodomain [1] = biological target: T1, Brd4 bromodomain (Homo sapiens, UniProt O60885); assay: Alpha-screen enzyme assay (bromodomain binding to acetylated histone peptide); conditions: for IC50: inhibition of bromodomain binding activity, calculated with Prism6;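 for all read-outs here: AlphaScreen proximity readout pairing streptavidin donor beads with anti-GST acceptor beads, with hits checked against bead interference using a TruHit control kit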
T1 construct: glutathione-S-transferase (GST) and His-tagged bromodomain; made in house
Experimental: Bromodomain was prepared as previously described. […] Streptavidin-coated donor beads and anti-GST alpha-screen acceptor beads were added under low-light condition. […] The alpha-screen results were confirmed by using alpha-screen TruHit kits (PerkinElmer, USA).

[2] = Cell cytotoxic assay in Ty82 cells; assay type: cell-based; conditions: human, Ty82 cells; Ty82 cell cytotoxic activity, 72 h
Experimental: as §1

Brd4 bromodomain [3] = tested on: Brd4 bromodomain; set-up: method as in PMID 29928885; conditions: cited from earlier work

| Structure (SMILES) | increase in activity compared with 8ba (Brd4 bromodomain [1]; Brd4 IC50 ratio) | IC50 (Brd4 bromodomain [1]; alpha-screen assay) | melting point | c-MYC level (c-MYC) | CC50 (Ty82 cells) | CC50 at 72 h [2] | inhibitory activity against Brd4 bromodomain (in words) (Brd4 bromodomain [1]; alpha-screen assay) | IC50 (Ty82 cells) | inhibition of binding of Brd4 bromodomain to acetylated histone peptide (in words) (Brd4 bromodomain [3]) |
| --- | --- | --- | --- | --- | --- | --- | --- | --- | --- |
| COc1ccc2c(c1)C=C1c3c(ccc(OC)c3O2)C(=O)N1C [Compound 8bc, 5,9-Dimethoxy-1-methylbenzo[6,7]oxepino[4,3,2-cd]isoindol-2(1H)-one] | 40 fold | 0.41 µM | 194 to 196 °C | significantly decreased | 0.66 µM | – | – | – | – |
| CCOc1ccc2c3c1Oc1ccc(OC)cc1C=C3N(C)C2=O [Compound 8bk, 5-Ethoxy-9-methoxy-1-methylbenzo[6,7]oxepino[4,3,2-cd]isoindol-2(1H)-one] | – | 0.86 µM | 214 to 216 °C | significantly decreased | 0.49 µM | – | – | – | – |
| CCN(CC)c1ccc2c3c1Oc1ccc(OCC(C)C)cc1C=C3N(C)C2=O [Compound 8ca] | – | > 32 µM | 183 to 185 °C | – | – | > 20 µM | no inhibitory activity | – | – |
| CCCc1ccc2c3c1Oc1ccc(OCC(C)C)cc1C=C3N(C)C2=O [Compound 8da, 9-Isobutoxy-1-methyl-5-propylbenzo[6,7]oxepino[4,3,2-cd]isoindol-2(1H)-one] | – | 6.64 µM | 196 to 199 °C | – | – | – | – | 10 µM | – |
| COc1ccc2c(c1OC)Oc1c(OC)ccc3c1C(=C2)N(C)C3=O [aristoyagonine] | – | – | – | – | – | – | – | – | efficiently inhibited |

The next lines start with results.

| increase in activity compared with 8ba (Brd4 bromodomain [1]; Brd4 IC50 ratio) | IC50 (Brd4 bromodomain [1]; alpha-screen assay) | melting point | Structure (SMILES) | c-MYC level (c-MYC) | CC50 (Ty82 cells) | CC50 at 72 h [2] | inhibitory activity against Brd4 bromodomain (in words) (Brd4 bromodomain [1]; alpha-screen assay) | IC50 (Ty82 cells) | inhibition of binding of Brd4 bromodomain to acetylated histone peptide (in words) (Brd4 bromodomain [3]) |
| --- | --- | --- | --- | --- | --- | --- | --- | --- | --- |
| – | > 32 µM | 185 to 188 °C | CCN(CC)c1ccc2c3c1Oc1ccc(OCc4ccccc4)cc1C=C3N(C)C2=O [Compound 8cd, 9-(Benzyloxy)-5-(diethylamino)-1-methylbenzo[6,7]oxepino[4,3,2-cd]isoindol-2(1H)-one] | – | > 20 µM | – | – | – | – |
| – | 7.29 µM | 199 to 201 °C | CCN(CC)c1ccc2c3c1Oc1cc4c(cc1C=C3N(C)C2=O)OCO4 [Compound 8ce, 5-(Diethylamino)-1-methyl-[1,3]dioxolo[4”,5”.4′,5′]benzo[1′,2′:6,7]oxepino[4,3,2-cd]isoindol-2(1H)-one] | – | 10 µM | – | – | – | – |
| – | > 32 µM | 239 to 241 °C | CCCc1ccc2c3c1Oc1ccc(C(F)(F)F)cc1C=C3N(C)C2=O [Compound 8db, 1-Methyl-5-propyl-9-(trifluoromethyl)benzo[6,7]oxepino[4,3,2-cd]isoindol-2(1H)-one] | – | – | – | – | > 20 µM | – |
| – | 9 µM | 203 to 205 °C | CCCc1ccc2c3c1Oc1ccc(OCc4ccccc4)cc1C=C3N(C)C2=O [Compound 8dd, 9-(Benzyloxy)-1-methyl-5-propylbenzo[6,7]oxepino[4,3,2-cd]isoindol-2(1H)-one] | – | – | – | – | 10 µM | – |
| – | 2.69 µM | 257 to 259 °C | CCCc1ccc2c3c1Oc1cc4c(cc1C=C3N(C)C2=O)OCO4 [Compound 8de, 1-methyl-5-propyl-[1,3]dioxolo[4”,5”.4′,5′]benzo[1′,2′:6,7]oxepino[4,3,2-cd]isoindol-2(1H)-one] | – | – | – | – | 4.5 µM | – |
